For 22 compounds, IC90 results are on record in patent US12679824B2 (Hoffmann-La Roche Inc., priority 2020, dated 2026).

In one assay the test system is Acinetobacter baumannii ATCC17961. The experiment in a line: 90% Growth Inhibitory Concentration (IC90) determination, antimicrobial susceptibility testing. The class given is cell-based. The settings on record: Acinetobacter baumannii, ATCC17961, 16 h, Acinetobacter baumannii ATCC17961; Iso-Sensitest broth; growth by optical density at 600 nm over 16h; concentration inhibiting 90% of the growth; read-out: ATCC 17961 IC90. The procedure, abridged: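 Broth microdilution in Iso-Sensitest medium, compounds twofold diluted (e.g. 50–0.097 μM final), inoculum ~5×10^(5) CFU/ml, 35±2° C. OD600 was read every 20 min over 16 h. IC90 was derived from growth inhibition during logarithmic growth.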
Turning to `Cn1c(-c2cn(-c3ccc(N)cn3)nc2C(F)(F)F)cnc1C(=O)Nc1ccc(C(=O)N2CCC(N)CC2)c(Cl)c1` [Example Z20, N-[4-(4-aminopiperidine-1-carbonyl)-3-chloro-phenyl]-5-[1-(5-amino-2-pyridyl)-3-(trifluoromethyl)pyrazol-4-yl]-1-methyl-imidazole-2-carboxamide], the IC90 (as a rule, the point of the concentration-response curve where the effect stands at 90%) stood at 330 nM.

For the compound `C[C@H]1CNCCN1C(=O)c1ccc(NC(=O)c2ncc(-c3cn(-c4ccc(N)cn4)nc3C(F)(F)F)n2C)cc1Cl` [Example Z56, 5-[1-(5-amino-2-pyridyl)-3-(trifluoromethyl)pyrazol-4-yl]-N-[3-chloro-4-[(2S)-2-methylpiperazine-1-carbonyl]phenyl]-1-methyl-imidazole-2-carboxamide], the IC90 is 400 nM. Consider `Cn1c(-c2cn(-c3ccc(N)cn3)nc2C(F)(F)F)cnc1C(=O)Nc1ccc(C(=O)NCCCNC(=O)[C@@H]2C[C@@H](O)CN2)c(Cl)c1` [Example Z26, 5-[1-(5-amino-2-pyridyl)-3-(trifluoromethyl)pyrazol-4-yl]-N-[3-chloro-4-[3-[[(2S,4R)-4-hydroxyprolyl]amino]propylcarbamoyl]phenyl]-1-methyl-imidazole-2-carboxamide], for which the IC90 was 690 nM. Consider `CNc1ccnc(-n2cc(-c3cnc(C(=O)Nc4ccc(C(=O)N5CCN(C(=O)C6CCNCC6)CC5)c(Cl)c4)n3C)c(C(F)(F)F)n2)n1` [Example A16, N-[3-chloro-4-[4-(piperidine-4-carbonyl)piperazine-1-carbonyl]phenyl]-1-methyl-5-[1-[4-(methylamino)pyrimidin-2-yl]-3-(trifluoromethyl)pyrazol-4-yl]imidazole-2-carboxamide], for which the IC90 was 680 nM. Take `C[C@H]1NCCN(C(=O)c2ccc(NC(=O)c3ncc(-c4cn(-c5ccc(N)cn5)nc4C(F)(F)F)n3C)cc2Cl)[C@H]1C` [Example Z68, 5-[1-(5-amino-2-pyridyl)-3-(trifluoromethyl)pyrazol-4-yl]-N-[3-chloro-4-[(2S,3R)-2,3-dimethylpiperazine-1-carbonyl]phenyl]-1-methyl-imidazole-2-carboxamide]: the IC90 was found to be 650 nM. As for `Cn1c(-c2cn(-c3ccc(N)cn3)nc2C(F)(F)F)cnc1C(=O)Nc1ccc(C(=O)N[C@H]2C[C@H](NC(=O)[C@@H]3C[C@@H](O)CN3)C2)c(Cl)c1` [Example Z38, 5-[1-(5-amino-2-pyridyl)-3-(trifluoromethyl)pyrazol-4-yl]-N-[3-chloro-4-[trans-[3-[[(2S,4R)-4-hydroxyprolyl]amino]cyclobutyl]carbamoyl]phenyl]-1-methyl-imidazole-2-carboxamide], the concentration for an effect of 90% (IC90) amounted to 660 nM. Regarding `Cc1nc(N)ccc1-n1cc(-c2cnc(C(=O)Nc3ccc(C(=O)N4CCN(C(=O)C5CCNCC5)CC4)c(Cl)c3)n2C)c(C(F)(F)F)n1` [Example Z79, 5-[1-(6-amino-2-methyl-3-pyridyl)-3-(trifluoromethyl)pyrazol-4-yl]-N-[3-chloro-4-[4-(piperidine-4-carbonyl)piperazine-1-carbonyl]phenyl]-1-methyl-imidazole-2-carboxamide], the IC90 was found to be 1200 nM. As for `Cn1c(-c2cn(-c3ccc(N)cn3)nc2C(F)(F)F)cnc1C(=O)Nc1ccc(C(=O)N[C@H]2C[C@H](N)C2)c(Cl)c1` [Example Z19, N-[4-[trans-(3-aminocyclobutyl)carbamoyl]-3-chloro-phenyl]-5-[1-(5-amino-2-pyridyl)-3-(trifluoromethyl)pyrazol-4-yl]-1-methyl-imidazole-2-carboxamide], the IC90 worked out at 950 nM. Consider `Cn1c(-c2cn(-c3cnccn3)nc2C(F)(F)F)cnc1C(=O)Nc1ccc(C(=O)N2CCN(C(=O)C3CCNCC3)CC2)c(Cl)c1` [Example A20, N-[3-chloro-4-[4-(piperidine-4-carbonyl)piperazine-1-carbonyl]phenyl]-1-methyl-5-[1-pyrazin-2-yl-3-(trifluoromethyl)pyrazol-4-yl]imidazole-2-carboxamide], for which the IC90 turned out to be 480 nM.

With `Cn1c(-c2cn(-c3ccc(N)cn3)nc2C(F)(F)F)cnc1C(=O)Nc1ccc(C(=O)N2CC[C@@H](CNC(=O)[C@@H]3C[C@@H](O)CN3)C2)c(Cl)c1` [Example Z39, 5-[1-(5-amino-2-pyridyl)-3-(trifluoromethyl)pyrazol-4-yl]-N-[3-chloro-4-[(3S)-3-[[[(2S,4R)-4-hydroxyprolyl]amino]methyl]pyrrolidine-1-carbonyl]phenyl]-1-methyl-imidazole-2-carboxamide], the IC90 was determined as 580 nM. Take `CC[C@H]1CNCCN1C(=O)c1ccc(NC(=O)c2ncc(-c3cn(-c4ccc(N)cn4)nc3C(F)(F)F)n2C)cc1Cl` [Example Z64, 5-[1-(5-amino-2-pyridyl)-3-(trifluoromethyl)pyrazol-4-yl]-N-[3-chloro-4-[(2S)-2-ethylpiperazine-1-carbonyl]phenyl]-1-methyl-imidazole-2-carboxamide]: the 90% effect concentration (IC90) is 440 nM.

`Cn1c(-c2cn(-c3ncc(F)cn3)nc2C(F)(F)F)cnc1C(=O)Nc1ccc(C(=O)N2CCN(C(=O)C3CCNCC3)CC2)c(Cl)c1` [Example A8, N-[3-chloro-4-[4-(piperidine-4-carbonyl)piperazine-1-carbonyl]phenyl]-5-[1-(5-fluoropyrimidin-2-yl)-3-(trifluoromethyl)pyrazol-4-yl]-1-methyl-imidazole-2-carboxamide]: the IC90 was 910 nM. As for `Cn1c(-c2cn(-c3ccc(N)cn3)nc2C(F)(F)F)cnc1C(=O)Nc1ccc(C(=O)N2C3CCC2CNC3)c(Cl)c1` [Example Z62, 5-[1-(5-amino-2-pyridyl)-3-(trifluoromethyl)pyrazol-4-yl]-N-[3-chloro-4-(3,8-diazabicyclo[3.2.1]octane-8-carbonyl)phenyl]-1-methyl-imidazole-2-carboxamide], the IC90 was 380 nM. As for `Cn1c(-c2cn(-c3ccc(N)cn3)nc2C(F)(F)F)cnc1C(=O)Nc1ccc(C(=O)NCC2CCN(C(=O)[C@@H]3C[C@@H](O)CN3)CC2)c(Cl)c1` [Example Z34, 5-[1-(5-amino-2-pyridyl)-3-(trifluoromethyl)pyrazol-4-yl]-N-[3-chloro-4-[[1-[(2S,4R)-4-hydroxyprolyl]-4-piperidyl]methylcarbamoyl]phenyl]-1-methyl-imidazole-2-carboxamide], the IC90 turned out to be 410 nM. Regarding `Cn1c(-c2cn(-c3ccc(N)cn3)nc2C(F)(F)F)cnc1C(=O)Nc1ccc(C(=O)N2CCC(CN)CC2)c(Cl)c1` [Example Z14, N-[4-[4-(aminomethyl)piperidine-1-carbonyl]-3-chloro-phenyl]-5-[1-(5-amino-2-pyridyl)-3-(trifluoromethyl)pyrazol-4-yl]-1-methyl-imidazole-2-carboxamide], the IC90 was determined as 850 nM. Turning to `C[C@H]1CN(C(=O)c2ccc(NC(=O)c3ncc(-c4cn(-c5ccc(N)cn5)nc4C(F)(F)F)n3C)cc2Cl)CCN1` [Example Z61, 5-[1-(5-amino-2-pyridyl)-3-(trifluoromethyl)pyrazol-4-yl]-N-[3-chloro-4-[(3S)-3-methylpiperazine-1-carbonyl]phenyl]-1-methyl-imidazole-2-carboxamide], the IC90 came to 700 nM. Turning to `Cn1c(-c2cn(-c3ccc(N)cn3)nc2C(F)(F)F)cnc1C(=O)Nc1ccc(C(=O)NC2CC(CN)(CCl)C2)c(Cl)c1` (stereo not shown) [Example Z15, N-[4-[[3-(aminomethyl)-3-(chloromethyl)cyclobutyl]carbamoyl]-3-chloro-phenyl]-5-[1-(5-amino-2-pyridyl)-3-(trifluoromethyl)pyrazol-4-yl]-1-methyl-imidazole-2-carboxamide], the IC90 was found to be 910 nM. For the compound `Cn1c(-c2cn(-c3ccc(N)cn3)nc2C(F)(F)F)cnc1C(=O)Nc1ccc(C(=O)N2CCC3(CCNC3)CC2)c(Cl)c1` [Example Z8, 5-[1-(5-amino-2-pyridyl)-3-(trifluoromethyl)pyrazol-4-yl]-N-[3-chloro-4-(2,8-diazaspiro[4.5]decane-8-carbonyl)phenyl]-1-methyl-imidazole-2-carboxamide], the IC90 amounted to 370 nM.

As for `COc1cc(-n2cc(-c3cnc(C(=O)Nc4ccc(C(=O)N5CCN(C(=O)C6CCNCC6)CC5)c(Cl)c4)n3C)c(C(F)(F)F)n2)ncn1` [Example Z49, N-[3-chloro-4-(4-isonipecotoylpiperazine-1-carbonyl)phenyl]-5-[1-(6-methoxypyrimidin-4-yl)-3-(trifluoromethyl)pyrazol-4-yl]-1-methyl-imidazole-2-carboxamide], the IC90 amounted to 840 nM.

Still in this assay, the particulars now being: Acinetobacter baumannii, ATCC17961, 16 h, read-out: ATCC 17961 IC90.
Regarding `Cn1c(-c2cn(-c3ccc(N)cn3)nc2C(F)(F)F)cnc1C(=O)Nc1ccc(C(=O)NC23CC(NC(=O)[C@@H]4C[C@@H](O)CN4)(C2)C3)c(Cl)c1` [Example Z47, 5-[1-(5-amino-2-pyridyl)-3-(trifluoromethyl)pyrazol-4-yl]-N-[3-chloro-4-[[3-[[(2S,4R)-4-hydroxyprolyl]amino]-1-bicyclo[1.1.1]pentanyl]carbamoyl]phenyl]-1-methyl-imidazole-2-carboxamide], the IC90 came to 580 nM. Same read-out and setting: the value for `CCNc1ccc(-n2cc(-c3cnc(C(=O)Nc4ccc(C(=O)N5CCN(C(=O)C6CCNCC6)CC5)c(Cl)c4)n3C)c(C(F)(F)F)n2)nc1` [Example K1, N-[3-chloro-4-[4-(piperidine-4-carbonyl)piperazine-1-carbonyl]phenyl]-5-[1-[5-(ethylamino)-2-pyridyl]-3-(trifluoromethyl)pyrazol-4-yl]-1-methyl-imidazole-2-carboxamide] was 500 nM; that for `Cn1c(-c2cn(-c3ccc(N)cn3)nc2C(F)(F)F)cnc1C(=O)Nc1ccc(C(=O)N2CCC(CNC(=O)[C@@H]3C[C@@H](O)CN3)CC2)c(Cl)c1` [Example Z45, 5-[1-(5-amino-2-pyridyl)-3-(trifluoromethyl)pyrazol-4-yl]-N-[3-chloro-4-[4-[[[(2S,4R)-4-hydroxyprolyl]amino]methyl]piperidine-1-carbonyl]phenyl]-1-methyl-imidazole-2-carboxamide] was 650 nM.
